{
  "source": "patent US20250195603A1",
  "about": "“COMPOSITION FOR PREVENTING OR TREATING DENTAL CARIES” (HYSENSBIO CO., LTD., priority 2022, published 2025)",
  "assay_type_in_all_cases": "cell-based",
  "key": {"human dental pulp cells [1]": {"system": "human dental pulp cells", "test": "Expression of inflammatory factors (RT-PCR) in LPS-treated human dental pulp cells", "settings": "10 μg/mL LPS only", "procedure": "To confirm the preventive and therapeutic effects of a pharmaceutical composition (KH002) in stage 4 dental caries in which inflammation occurred after cells are affected by dental caries, human dental pulp cells were treated with lipopolysaccharide (LPS) and the pharmaceutical composition (KH002), and the expression of inflammatory factors was compared.\n(§1) All experiments using human pulp cells were approved by the Institutional Review Board (IRB; S-D20140007) of the Seoul National University Dental Hospital and conducted in accordance with the guidelines and regulations of the institution. The third molars (wisdom teeth) were extracted from patients who signed the consent forms at the Seoul National University Dental Hospital, and pulp cells were isolated using a previously reported method (Choung et al., 2016). The teeth were cut open, the internal pulp was separated using forceps, and the pulp tissue was finely minced into 60-mm diameter cell culture dishes. […]\nA reverse transcription polymerase chain reaction (RT-PCR) was performed to compare the expression of inflammatory factors, and the ratio of the expression level of each factor to the expression level of glyceraldehyde 3-phosphate dehydrogenase (GAPDH) was confirmed for quantitative comparison (FIG. 3)."}, "human dental pulp cells [2]": {"system": "human dental pulp cells", "test": "Mineralization ability of human dental pulp cells (alizarin red S)", "settings": "LPS alone", "procedure": "To this end, human dental pulp cells were inoculated in each 6-well dish at 1×10^5 cells/well and then cultured in a differentiation medium containing ascorbic acid (50 μg/mL) and beta-glycerophosphate (10 mM) for 7, 14, and 21 days from the next day.\nas §1, with “dishes. The finely minced pulp tissue was then covered with a covered glass and cultured in a cell culture medium to isolate human pulp cells.” for “dishes.”\nTo compare the amount of mineralized matrix, the samples were fixed overnight at 4° C. with 4% paraformaldehyde (PFA), then treated with 40 mM alizarin red S (pH 4.2) at 25° C. for 30 minutes. After that, 0.5 mL of sodium dodecyl sulfate dissolved in 0.5 N hydrochloric acid was applied, and the samples were placed on a shaker for 30 minutes, and the absorbance was measured at 405 nm."}, "human pulp cells": {"system": "human pulp cells", "test": "Wound-healing model of human pulp cells (scratch)", "settings": "LPS only, 24 hours after scratch", "procedure": "Human pulp cells were inoculated in a 6-well plate at 1×10^5 cells/well, and the next day, the central portion was scratched with the tip of a 200 μL pipette, and the rate of cell growth was compared 24 hours later.\nas §1, with “dishes. The finely minced pulp tissue was then covered with a cover glass and cultured in a cell culture medium to isolate human pulp cells.” for “dishes.”\nCell photographs were taken using an optical microscope using a 10× objective lens, and the photographs were analyzed using the ImageJ software program."}, "human dental pulp cells [3]": {"system": "human dental pulp cells", "test": "Viability of human dental pulp cells in inflammatory environment (MTT)", "settings": "10 μg/mL LPS alone, vs negative control", "procedure": "To measure the cell viability, human dental pulp cells were inoculated in a 96-well plate at 5×10^3 cells/well and treated with 150 μL of a 3-(4,5-dimethyl-2-thiazolyl)-2,5-diphenyl-tetrazolium bromide (MTT, Medifab Co. Ltd.) solution for about two hours on days 1, 3, and 5, and the absorbance of the solution dissolved in DMSO was measured at 570 nm.\nas §1, with “dishes. The finely minced pulp tissue was then covered with a cover glass and cultured in a cell culture medium to isolate human pulp cells.” for “dishes.”"}},
  "data": [
    {"substance": "lipopolysaccharide [LPS]", "values": [
      {"measurement": "expression of inflammatory factors TNF-α, IL-1α, IL-1β, IL-6, CXCL10, iNOS, and COX2 (ratio to GAPDH)", "setting": "human dental pulp cells [1]", "result": "significantly increased"},
      {"measurement": "size of the mineral nodules", "setting": "human dental pulp cells [2]; day 21, compared to control group", "result": "significantly decreased"},
      {"measurement": "amount of mineralized matrix", "setting": "human dental pulp cells [2]; days 7, 14, and 21, compared to control group", "result": "significantly decreased"},
      {"measurement": "wound healing ability as a ratio to the control group", "setting": "human pulp cells", "result": "about 50 % of the control group"},
      {"measurement": "viability of dental pulp cells", "setting": "human dental pulp cells [3]", "result": "significant decrease"}
    ]}
  ]
}
